Converted amounts (≈) assume the structure as drawn.
Tested on: Mycobacterium tuberculosis
Experiment: Antimycobacterial activity against Mycobacterium tuberculosis H37Rv
Assay type: functional
Conditions: for MIC: Mycobacterium tuberculosis, H37Rv

## CC(C)=CCC[C@H](C)[C@H]1CC[C@H](C)c2c1cc(C)c1ncoc21
  inhibition (INH): 66%
  MIC: 12.5 µg/mL (≈ 40.1 µM)

## CCCCCc1nc2c(C)c3c4c(c2o1)[C@@H](C)CC[C@@H]4[C@@H](C)C[C@H]3C=C(C)C [HOMOPSEUDOPTEROXAZOLE]
  inhibition (INH): 80%
  MIC: 12.5 µg/mL (≈ 32.9 µM)

## CC(C)=C[C@@H]1C[C@H](C)[C@H]2CC[C@H](C)c3c2c1c(C)c1ncoc31 [PSEUDOPTEROXAZOLE]
  inhibition (INH): 97%
  MIC: 12.5 µg/mL (≈ 40.4 µM)
